Experimental data published in patent US20090239846A1, “Novel Compounds” (Glaxo Group Limited, priority 2005, published 2009).

Legend:
[1] = tested on: IL-8 production by human neutrophils; experiment: TNF-stimulated IL-8 production from human neutrophils; assay type: cell-based; conditions: Neutrophil, bound, not more than 50% inhibition at 100 nM, read-out: IC50
[2] = tested on: influx of neutrophils to the lung in LPS-challenged rats; experiment: Rat LPS neutrophilia model; assay type: in vivo; conditions: LPS aerosol, lavage 4 hours later, in at least one of the range of conditions tested, significance p<0.05
Method: The effect of compounds on the influx of neutrophils to the lung in LPS-challenged rats is evaluated as follows. The test compound is suspended in one of the following solutions: 0.5% tween 80/PBS, 0.5% tween 80/saline, 10% EtOH/saline (with pH adjusted to 2.0, or 8.0 with HCl, or unadjusted), Saline (pH 2.0, 6.5 or 8.0, 0.5% Tragacanth, 1% DMSO/20% Encapsin/Saline, or acidified 5% Tragacanth. The suspension process may be aided by the use of a glass homogenizer. For intratracheal administration, the animals are anesthetized with inhaled isoflurane and placed in a supine position, the trachea is intubated with a steel gavage needle (1.5 inch, 22 gauge, small ball) or a Penn-Century Microsprayer Aerosolizer (model IA-LB) and 200 ul of dosing solution is delivered. The animals are visually monitored during the recovery process, which typically occurs within two minutes.
Rats treated with compound or vehicle (15 min-24 hours pretreatment) are exposed to an LPS aerosol (100 ug/ml) for 15 min. Four hours later the rats are euthanized with pentobarbital (100 mg/kg, i.p.) and the airways are lavaged with 5 washes of 5 ml of phosphate buffered saline. The harvested cells are stained (Diffquick) and counted to determine total and differential cell data. In a typical study, macrophages represent 40-70% of the total cells, and polymorphonuclear cells 30-60% of the total cells. Inhibition of neutrophil levels relative to no compound controls is calculated based on the differential counts.
The assay has varying conditions, such as concentration, pretreat time, form of the compound (crystalline, amorphous, salts, micronised), and a wet or dry application of the compound.
The data is obtained as % inhibition using a particular concentration and pretreat time.

Recombinant human p38α = target: T1, Recombinant human p38α (Homo sapiens, UniProt Q16539); experiment: Fluorescence anisotropy kinase binding assay (standard or low volume); conditions: 12 nM p38α, 5 nM fluorescent ligand
T1 construct: GST; made in house
Description: (§1) The concentration of kinase enzyme should preferably be >2×Kf. The concentration of fluorescent ligand required will depend on the instrumentation used, and the fluorescent and physicochemical properties. The concentration used must be lower than the concentration of kinase enzyme, and preferably less than half the kinase enzyme concentration.
The fluorescent ligand is the following compound:
[drawing 329] • which is derived from 5-[2-(4-aminomethylphenyl)-5-pyridin-4-yl-1H-imidazol-4-yl]-2-chlorophenol and rhodamine green. Recombinant human p38α was expressed as a GST-tagged protein. To activate this protein, 3.5 μM unactivated p38α was incubated in 50 mM Tris-HCl pH 7.5, 0.1 mM EGTA, 0.1% 2-mercaptoethanol, 0.1 mM sodium vanadate, 10 mM MgAc, 0.1 mM ATP with 200 nM MBP-MKK6 DD at 30 degrees for 30 mins. Following activation p38α was re-purified and the activity assessed using a standard filter-binding assay. Protocol: All components are dissolved in buffer of composition 62.5 mM HEPES, pH 7.5, 1.25 mM CHAPS, 1 mM DTT, 12.5 mM MgCl2 with final concentrations of 12 nM p38α and 5 nM fluorescent ligand. 30 μl of this reaction mixture is added to wells containing 1 μl of various concentrations of test compound (0.28 nM-16.6 μM final) or DMSO vehicle (3% final) in NUNC 384 well black microtitre plate and equilibrated for 30-60 mins at room temperature. Fluorescence anisotropy is read in Molecular Devices Acquest (excitation 485 nm/emission 535 nm). Definitions: Ki=dissociation constant for inhibitor binding • Kf=dissociation constant for fluorescent ligand binding
as §1, with “2×Kf.” for “>2×Kf.”, “concentration. The fluorescent ligand is the following compound:” for “concentration.”
which is derived from 5-[2-(4-aminomethylphenyl)-5-pyridin-4-yl-1H-imidazol-4-yl]-2-chlorophenol and rhodamine green. Recombinant human p38α was expressed as a GST-tagged protein. To activate this protein, 3.5 μM unactivated p38α was incubated in 50 mM Tris-HCl pH 7.5, 0.1 mM EGTA, 0.1% 2-mercaptoethanol, 0.1 mM sodium vanadate, 10 mM MgAc, 0.1 mM ATP with 200 nM MBP-MKK6 DD at 30 degrees for 30 mins. Following activation p38α was re-purified and the activity assessed using a standard filter-binding assay. Protocol: All components are dissolved in buffer of composition 62.5 mM HEPES, pH 7.5, 1.25 mM CHAPS, 1 mM DTT, 12.5 mM MgCl2 with final concentrations of 12 nM p38α and 5 nM fluorescent ligand. […] of this reaction mixture is added to wells containing 0.1 μl of various concentrations of test compound (0.02 nM-25 μM final) or DMSO vehicle (1.7% final) in Greiner low volume 384 well black microtitre plate and equilibrated for 30-60 mins at room temperature. Fluorescence anisotropy is read in Molecular Devices Acquest (excitation 485 nm/emission 535 nm). Definitions: Ki dissociation constant for inhibitor binding • Kf=dissociation constant for fluorescent ligand binding It is noted that there are two assay formats shown above for the Fluorescence anisotropy kinase binding assay. The only difference between these two assays is the volume used and the plate type. […] The results described herein may have been performed in either assay format and are not differentiated as to which.

T1 sequence (Q16539 whole entry): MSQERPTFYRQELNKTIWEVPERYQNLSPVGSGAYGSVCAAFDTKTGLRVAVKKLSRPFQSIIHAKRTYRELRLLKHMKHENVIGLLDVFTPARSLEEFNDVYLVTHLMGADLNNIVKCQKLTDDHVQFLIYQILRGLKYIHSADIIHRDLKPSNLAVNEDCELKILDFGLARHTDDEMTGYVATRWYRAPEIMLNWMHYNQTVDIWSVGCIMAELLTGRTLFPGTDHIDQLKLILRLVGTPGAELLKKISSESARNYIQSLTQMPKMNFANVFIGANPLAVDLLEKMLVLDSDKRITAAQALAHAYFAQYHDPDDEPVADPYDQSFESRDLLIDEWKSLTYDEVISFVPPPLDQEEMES

Question: Which IC50 [1] does the source give for `CCN(CC)CCCNc1nc(-c2cc(C(=O)O)ccc2C)c2c(n1)N(c1c(F)cccc1F)C(=O)NC2` [228(b), 3-[2-{[3-(diethylamino)propyl]amino}-8-(2,6-difluorophenyl)-7-oxo-5,6,7,8-tetrahydropyrimido[4,5-d]pyrimidin-4-yl]-4-methylbenzoic acid] here?
Answer: > 100 nM

Question: How did the IC50 [1] turn out when `CCc1ccc(C(N)=O)cc1-c1nc(NCCN(C)C)nc2c1CNC(=O)N2c1c(F)cccc1F` [Example 146, 3-(8-(2,6-difluorophenyl)-2-{[2-(dimethylamino)ethyl]amino}-7-oxo-5,6,7,8-tetrahydropyrimido[4,5-d]pyrimidin-4-yl)-4-ethylbenzamide] was run?
Answer: > 100 nM

Question: Which inhibition of neutrophilia [2] does the source give for `CSc1nc(-c2cc(NC(=O)c3ccsc3)ccc2C)c2c(n1)N(c1c(F)cccc1F)C(=O)NC2` [7(c), N-{3-[8-(2,6-Difluorophenyl)-2-(methylthio)-7-oxo-5,6,7,8-tetrahydropyrimido[4,5-d]pyrimidin-4-yl]-4-methylphenyl}-3-thiophenecarboxamide] here?
Answer: inactive

Question: What about the “active in the assay (pIC50, p38α binding)” value (from here on “active in the assay”) (Recombinant human p38α) of the same compound?
Answer: active

Question: What does the source list for `CCCNC(=O)c1ccc(C)c(-c2nc(NCCCN(CC)CC)nc3c2CNC(=O)N3c2c(F)cccc2F)c1` [29(c), 3-[2-{[3-(diethylamino)propyl]amino}-8-(2,6-difluorophenyl)-7-oxo-5,6,7,8-tetrahydropyrimido[4,5-d]pyrimidin-4-yl]-4-methyl-N-propylbenzamide]?
Answer: inhibition of neutrophilia [2]: statistically significant inhibition of neutrophilia; active in the assay (pIC50, p38α binding) (Recombinant human p38α): active

Question: `Cc1ccc(C(=O)NCC(C)(C)C)cc1-c1nc(NCCN(C)C)nc2c1CNC(=O)N2c1c(F)cccc1F` [Example 125, 3-(8-(2,6-difluorophenyl)-2-{[2-(dimethylamino)ethyl]amino}-7-oxo-5,6,7,8-tetrahydropyrimido[4,5-d]pyrimidin-4-yl)-N-(2,2-dimethylpropyl)-4-methylbenzamide] was tested. Which IC50 [1] did it give?
Answer: > 100 nM

Question: Which inhibition of neutrophilia [2] does the source give for `CSc1nc(-c2cc(NC(=O)c3ccc(C)c(F)c3)ccc2C)c2c(n1)N(c1c(F)cccc1F)C(=O)NC2` [23(c), N-{3-[8-(2,6-difluorophenyl)-2-(methylthio)-7-oxo-5,6,7,8-tetrahydropyrimido[4,5-d]pyrimidin-4-yl]-4-methylphenyl}-3-fluoro-4-methylbenzamide] here?
Answer: inactive

Question: What about the “active in the assay” value (Recombinant human p38α) of the same compound?
Answer: active

Question: Which inhibition of neutrophilia [2] does the source give for `Cc1ccc(C(=O)Nc2ccc(F)cc2)cc1-c1nc(N2CCC(N3CCCCC3)CC2)nc2c1CNC(=O)N2c1c(F)cccc1F` [87(b), 3-[2-(1,4′-bipiperidin-1′-yl)-8-(2,6-difluorophenyl)-7-oxo-5,6,7,8-tetrahydropyrimido[4,5-d]pyrimidin-4-yl]-N-(4-fluorophenyl)-4-methylbenzamide] here?
Answer: statistically nonsignificant inhibition of neutrophilia

Question: And the “active in the assay” value (Recombinant human p38α)?
Answer: active

Question: Which inhibition of neutrophilia [2] does the source give for `Cc1ccc(C(=O)Nc2ccc(F)cc2)cc1-c1nc(N2CCC(N3CCCC3)CC2)nc2c1CNC(=O)N2c1c(F)cccc1F` [86(c), 3-{8-(2,6-difluorophenyl)-7-oxo-2-[4-(1-pyrrolidinyl)-1-piperidinyl]-5,6,7,8-tetrahydropyrimido[4,5-d]pyrimidin-4-yl}-N-(4-fluorophenyl)-4-methylbenzamide] here?
Answer: statistically nonsignificant inhibition of neutrophilia

Question: And the “active in the assay” value (Recombinant human p38α)?
Answer: active

Question: Which inhibition of neutrophilia [2] does the source give for `Cc1ccc(C(=O)Nc2ccc(F)cc2)cc1-c1nc(N(C)CCN(C)C)nc2c1CNC(=O)N2c1c(F)cccc1F` [Example 32, 3-{8-(2,6-difluorophenyl)-2-[[2-(dimethylamino)ethyl](methyl)amino]-7-oxo-5,6,7,8-tetrahydropyrimido[4,5-d]pyrimidin-4-yl}-N-(4-fluorophenyl)-4-methylbenzamide] here?
Answer: statistically nonsignificant inhibition of neutrophilia

Question: What about the “active in the assay” value (Recombinant human p38α) of the same compound?
Answer: active

Question: With `Cc1ccc(C(=O)NC(C)C)cc1-c1nc(N(C)CCCN(C)C)nc2c1CNC(=O)N2c1c(F)cccc1F` [34(d), 3-{8-(2,6-difluorophenyl)-2-[[3-(dimethylamino)propyl](methyl)amino]-7-oxo-5,6,7,8-tetrahydropyrimido[4,5-d]pyrimidin-4-yl}-4-methyl-N-(1-methylethyl)benzamide] as the compound, how does the inhibition of neutrophilia [2] read?
Answer: statistically nonsignificant inhibition of neutrophilia

Question: What about the “active in the assay” value (Recombinant human p38α) of the same compound?
Answer: active

Question: What does the source list for `Cc1ccc(C(=O)Nc2ccc(F)cc2)cc1-c1nc(NCCN(C)C)nc2c1CNC(=O)N2c1c(F)cccc1F` [8(c), 3-(8-(2,6-difluorophenyl)-2-{[2-(dimethylamino)ethyl]amino}-7-oxo-5,6,7,8-tetrahydropyrimido[4,5-d]-pyrimidin-4-yl)-N-(4-fluorophenyl)-4-methylbenzamide]?
Answer: inhibition of neutrophilia [2]: statistically significant inhibition of neutrophilia; active in the assay (pIC50, p38α binding) (Recombinant human p38α): active

Question: With `CCCNC(=O)c1ccc(C)c(-c2nc(N(C)CCCN(C)C)nc3c2CNC(=O)N3c2c(F)cccc2F)c1` [Example 53, 3-{8-(2,6-difluorophenyl)-2-[[3-(dimethylamino)propyl](methyl)amino]-7-oxo-5,6,7,8-tetrahydropyrimido[4,5-d]pyrimidin-4-yl}-4-methyl-N-propylbenzamide] as the compound, how does the inhibition of neutrophilia [2] read?
Answer: statistically nonsignificant inhibition of neutrophilia

Question: What does the source list for `Cc1ccc(C(=O)Nc2nccs2)cc1-c1nc(NCCN(C)C)nc2c1CNC(=O)N2c1c(F)cccc1F` [118(c), 3-(8-(2,6-difluorophenyl)-2-{[2-(dimethylamino)ethyl]amino}-7-oxo-5,6,7,8-tetrahydropyrimido[4,5-d]pyrimidin-4-yl)-4-methyl-N-1,3-thiazol-2-ylbenzamide]?
Answer: inhibition of neutrophilia [2]: statistically significant inhibition of neutrophilia; active in the assay (pIC50, p38α binding) (Recombinant human p38α): active

Question: For `Cc1ccc(C(=O)Nc2nccs2)cc1-c1nc(N(C)CCCN(C)C)nc2c1CNC(=O)N2c1c(F)cccc1F` [Example 124, 3-{8-(2,6-difluorophenyl)-2-[[3-(dimethylamino)propyl](methyl)amino]-7-oxo-5,6,7,8-tetrahydropyrimido[4,5-d]pyrimidin-4-yl}-4-methyl-N-1,3-thiazol-2-ylbenzamide], which inhibition of neutrophilia [2] is on record?
Answer: statistically nonsignificant inhibition of neutrophilia

Question: For `CCN(CC)CCCNc1nc(-c2cc(C(=O)Nc3ccc(F)cc3)ccc2C)c2c(n1)N(c1c(F)cccc1F)C(=O)NC2` [Example 43, 3-[2-{[3-(diethylamino)propyl]amino}-8-(2,6-difluorophenyl)-7-oxo-5,6,7,8-tetrahydropyrimido[4,5-d]pyrimidin-4-yl]-N-(4-fluorophenyl)-4-methylbenzamide], which inhibition of neutrophilia [2] is on record?
Answer: inactive
